Test results reported in patent US11214577B2, “Morphinans useful for treating medical disorders” (priority 2019, dated 2022).
pEC50, pIC50: −log10 of the molar value. Like-named read-outs stand apart in the source and are kept apart here.

Legend:
[1] = target: T1, recombinant human delta opioid receptor (Homo sapiens, UniProt P41143); test: Opioid receptor radioligand binding assay, delta; conditions: for pIC50: radioligand [3H]DADLE 0.5 nM; for Selectivity δ/k: ratio of Delta IC50 to Kappa IC50
T1 construct: expressed in transfected cells; host or cells: HEK293 (membranes)
T1 sequence (P41143 whole entry): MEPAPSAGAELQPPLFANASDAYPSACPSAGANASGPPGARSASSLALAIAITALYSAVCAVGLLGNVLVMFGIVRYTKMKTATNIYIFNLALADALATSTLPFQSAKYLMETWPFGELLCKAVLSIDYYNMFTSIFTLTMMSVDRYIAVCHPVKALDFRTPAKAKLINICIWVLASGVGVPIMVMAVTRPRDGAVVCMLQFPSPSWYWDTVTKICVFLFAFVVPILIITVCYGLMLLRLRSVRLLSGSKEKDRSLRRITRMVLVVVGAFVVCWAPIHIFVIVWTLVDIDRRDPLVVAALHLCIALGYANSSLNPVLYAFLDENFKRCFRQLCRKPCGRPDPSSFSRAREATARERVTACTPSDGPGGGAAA

[2] = target: T2, recombinant human kappa opioid receptor (Homo sapiens, UniProt P41145); test: biochemical; conditions: membranes of HEK293 cells; radioligand [3H]diprenorphine 0.5 nM; read-out: Binding Affinity Kappa IC50
T2 construct: expressed in transfected cells; host or cells: HEK293 (membranes)
T2 sequence (P41145 whole entry): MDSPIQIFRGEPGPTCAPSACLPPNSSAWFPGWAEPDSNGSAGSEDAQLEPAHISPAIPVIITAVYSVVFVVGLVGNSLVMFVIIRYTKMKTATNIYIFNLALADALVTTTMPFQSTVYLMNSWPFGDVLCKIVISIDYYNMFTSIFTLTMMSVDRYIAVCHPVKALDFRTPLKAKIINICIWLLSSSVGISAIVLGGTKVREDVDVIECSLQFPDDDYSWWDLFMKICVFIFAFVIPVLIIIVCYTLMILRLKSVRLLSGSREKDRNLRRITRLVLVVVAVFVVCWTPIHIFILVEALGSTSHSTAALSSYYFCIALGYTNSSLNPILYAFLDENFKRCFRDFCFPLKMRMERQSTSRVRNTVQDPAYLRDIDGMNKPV

[3] = target: T3, recombinant human mu opioid receptor (Homo sapiens, UniProt P35372); test: Opioid receptor radioligand binding assay, mu; conditions: for pIC50: radioligand [3H]DAMGO 0.5 nM; for Selectivity μ/k: ratio of Mu IC50 to Kappa IC50
T3 construct: expressed in transfected cells; host or cells: HEK293 (membranes)
T3 sequence (P35372 whole entry): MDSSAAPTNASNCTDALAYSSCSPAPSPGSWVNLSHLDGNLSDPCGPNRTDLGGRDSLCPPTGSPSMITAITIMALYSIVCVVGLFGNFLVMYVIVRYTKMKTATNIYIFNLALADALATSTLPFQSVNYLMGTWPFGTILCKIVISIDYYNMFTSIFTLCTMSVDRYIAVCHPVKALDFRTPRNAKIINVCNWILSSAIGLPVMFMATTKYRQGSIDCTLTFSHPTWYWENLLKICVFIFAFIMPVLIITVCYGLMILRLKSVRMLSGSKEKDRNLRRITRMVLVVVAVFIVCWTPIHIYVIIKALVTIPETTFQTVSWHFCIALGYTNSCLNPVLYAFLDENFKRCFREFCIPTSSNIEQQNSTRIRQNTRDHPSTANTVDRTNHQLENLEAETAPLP

[4] = target: T2, recombinant human kappa opioid receptor; test: cell-based; assay type: cell-based; conditions: for pEC50: read-out: Cell Assay (FLIPR Calcium) Kappa EC50
[5] = membranes of HEK293 cells, read-out: Binding Affinity Delta IC50
[6] = membranes of HEK293 cells, read-out: Binding Affinity Mu IC50
[7] = Binding Affinity Delta IC50, membranes of HEK293 cells
[8] = Binding Affinity Mu IC50, membranes of HEK293 cells

Compound	pIC50 [1, 5]	Selectivity δ/k [1]	pIC50 [2]	pIC50 [3, 6]	Selectivity μ/k [3]	pIC50 [1, 7]	pIC50 [3, 8]	FLIPR calcium cell assay compared with reference ([4]; comparison in words on Table 2)	pEC50 [4]
17-cyclopropylmethyl-10-oxo-4,5α-epoxy-3,14β-dihydroxy-6β-((1R,2R)—N-methyl-2-(3-(4-hydroxylphenyl)-cyclopropanecarboxamido)morphinan [Compound 23b]	6.28	1331	9.21	7.13	118.9	–	–	–	–
17-cyclopropylmethyl-10-oxo-4,5α-epoxy-3,14β-dihydroxy-6β-((1S,2S)—N-methyl-2-(3-(4-hydroxylphenyl)-cyclopropanecarboxamido)morphinan [Compound 23a]	6.58	3731	10.15	7.91	174.3	–	–	–	–
CN(C(=O)C1CC1c1ccoc1)C1CCC2(O)C3Cc4ccc(O)c5c4C2(CCN3CC2(O)CC2)C1O5 (single isomer, unassigned) [Compound 16a]	–	5.80	9.03	–	1.65	8.26	8.81	–	–
CN(C(=O)C1CC1c1ccoc1)C1CCC2(O)C3Cc4ccc(O)c5c4C2(CCN3CC2(O)CC2)C1O5 (single isomer, unassigned) [Compound 16b]	–	5.05	8.17	–	1.07	7.47	8.14	–	–
CN(C(=O)C1CC1c1ccsc1)C1CCC2(O)C3Cc4ccc(O)c5c4C2(CCN3CC2(O)CC2)C1O5 (single isomer, unassigned) [Compound 18a]	–	11.3	9.01	–	1.63	7.96	8.80	–	–
CN(C(=O)C1CC1c1ccsc1)C1CCC2(O)C3Cc4ccc(O)c5c4C2(CCN3CC2(O)CC2)C1O5 (single isomer, unassigned) [Compound 18b]	–	19.2	8.21	–	12.5	6.93	7.11	–	–
CN(C(=O)C1CC1c1ccsc1)C1CCC2(O)C3Cc4ccc(O)c5c4C2(CCN3CC2(O)CC2)C1O5 (single isomer, unassigned) [Compound 19a]	–	96.1	9.77	–	8.05	7.79	8.86	–	–
CN(C(=O)C1CC1c1ccc(O)cc1)C1CCC2(O)C3Cc4ccc(O)c5c4C2(CCN3CC2(O)CC2)C1O5 (single isomer, unassigned) [Compound 20a]	–	1.57	6.99	–	1.12	6.79	6.92	–	–
CN(C(=O)C1CC1c1ccc(O)cc1)C1CCC2(O)C3Cc4ccc(O)c5c4C2(CCN3CC2(O)CC2)C1O5 (single isomer, unassigned) [Compound 21a]	–	35.6	9.07	–	1.47	7.52	8.90	–	–
CN(C(=O)[C@H]1C[C@@H]1c1ccoc1)[C@@H]1CC[C@@]2(O)[C@H]3Cc4ccc(O)c5c4[C@@]2(CCN3CC2CC2)[C@H]1O5 [Compound 5a, 17-Cyclopropylmethyl-4,5α-epoxy-3,14β-dihydroxy-6β-((1S,2S)—N-methyl-2-(3-furyl)-cyclopropanecarboxamido)morphinan]	–	207.59	9.38	–	–	7.06	7.97	improved cell assays over U-69596	8.58
CN(C(=O)[C@@H]1C[C@H]1c1ccoc1)[C@@H]1CC[C@@]2(O)[C@H]3Cc4ccc(O)c5c4[C@@]2(CCN3CC2CC2)[C@H]1O5 [Compound 5b, 17-Cyclopropylmethyl-4,5α-epoxy-3,14β-dihydroxy-6β-((1R,2R)—N-methyl-2-(3-furyl)-cyclopropanecarboxamido)morphinan]	–	8.90	8.11	–	0.45	7.16	8.46	–	8.01
CN(C(=O)[C@H]1C[C@@H]1c1ccoc1)[C@H]1CC[C@@]2(O)[C@H]3Cc4ccc(O)c5c4[C@@]2(CCN3CC2CC2)[C@H]1O5 [Compound 7a, 17-Cyclopropylmethyl-4,5α-epoxy-3,14β-dihydroxy-6α-((1S,2S)—N-methyl-2-(3-furyl)-cyclopropanecarboxamido)morphinan]	–	12.6	10.30	–	5.85	9.18	9.52	–	8.16
CN(C(=O)[C@@H]1C[C@H]1c1ccoc1)[C@H]1CC[C@@]2(O)[C@H]3Cc4ccc(O)c5c4[C@@]2(CCN3CC2CC2)[C@H]1O5 [Compound 7b, 17-Cyclopropylmethyl-4,5α-epoxy-3,14β-dihydroxy-6α-((1R,2R)—N-methyl-2-(3-furyl)-cyclopropanecarboxamido)morphinan]	–	2.82	9.62	–	2.16	9.17	9.28	–	8.42
CN(C(=O)[C@H]1C[C@@H]1c1ccoc1)[C@@H]1CC[C@@]2(O)[C@H]3Cc4ccc(O)c5c4[C@@]2(CCN3CC2(O)CC2)[C@H]1O5 [Compound 17a, 17-(1-hydroxylcyclopropylmethyl)-4,5α-epoxy-3,14β-dihydroxy-6β-((1S,2S)—N-methyl-2-(3-furyl)-cyclopropanecarboxamido)morphinan]	–	35.3	8.91	–	4.07	7.37	8.30	–	–
CN(C(=O)[C@@H]1C[C@H]1c1ccoc1)[C@@H]1CC[C@@]2(O)[C@H]3Cc4ccc(O)c5c4[C@@]2(CCN3CC2(O)CC2)[C@H]1O5 [Compound 17b]	–	11.0	8.19	–	6.99	7.15	7.34	–	–
CN(C(=O)[C@@H]1C[C@H]1c1ccsc1)[C@@H]1CC[C@@]2(O)[C@H]3Cc4ccc(O)c5c4[C@@]2(CCN3CC2(O)CC2)[C@H]1O5 [Compound 19b]	–	319	9.34	–	13.0	6.83	8.22	–	–
CN(C(=O)[C@@H]1C[C@H]1c1ccc(O)cc1)[C@H]1CC[C@@]2(O)[C@H]3Cc4ccc(O)c5c4[C@@]2(CCN3CC2(O)CC2)[C@H]1O5 [Compound 20b]	–	0.73	7.80	–	0.50	7.93	8.09	–	–
CN(C(=O)[C@@H]1C[C@H]1c1ccc(O)cc1)[C@@H]1CC[C@@]2(O)[C@H]3Cc4ccc(O)c5c4[C@@]2(CCN3CC2(O)CC2)[C@H]1O5 [Compound 21b]	–	<1.93	< 6.70	–	<0.57	6.41	6.94	–	–
